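GI50 = concentration required for 50% inhibition of growth. Definition used: TGI = concentration required for complete inhibition of growth.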
Key:
Experiment in all cases: NCI anticancer screen, dose series, 384-well format; in the data active = GI50 below about 0.43 µM; inactive = the rest
786-0 renal = test system: 786-0 renal
A498 renal = test system: A498 renal
A549 NSCLC = test system: A549 NSCLC
ACHN renal = test system: ACHN renal
BT-549 breast = test system: BT-549 breast
CAKI-1 renal = test system: CAKI-1 renal
CCRF-CEM leukemia = test system: CCRF-CEM leukemia
COLO 205 colon = test system: COLO 205 colon
DU-145 prostate = test system: DU-145 prostate
HCC-2998 colon = test system: HCC-2998 colon
HCT-116 colon = test system: HCT-116 colon
HCT-15 colon = test system: HCT-15 colon
HL-60(TB) leukemia = test system: HL-60(TB) leukemia
HOP-62 NSCLC = test system: HOP-62 NSCLC
HOP-92 NSCLC = test system: HOP-92 NSCLC
HT29 colon = test system: HT29 colon
IGROV1 ovarian = test system: IGROV1 ovarian
K-562 leukemia = test system: K-562 leukemia
KM12 colon = test system: KM12 colon
LOX IMVI melanoma = test system: LOX IMVI melanoma
M14 melanoma = test system: M14 melanoma
MALME-3M melanoma = test system: MALME-3M melanoma
MCF7 breast = test system: MCF7 breast
MDA-MB-231 breast = test system: MDA-MB-231 breast
MDA-MB-435 melanoma = test system: MDA-MB-435 melanoma
MDA-MB-468 breast = test system: MDA-MB-468 breast
MOLT-4 leukemia = test system: MOLT-4 leukemia
NCI-H226 lung = test system: NCI-H226 lung
NCI-H23 lung = test system: NCI-H23 lung

Cc1c(S(C)(=O)=O)c(-c2cc(F)cc(N3CCN(c4ccc(NS(=O)(=O)c5ccc(N[C@H](CCN6CCC(C(=O)OCCCP(=O)(O)O)CC6)CSc6ccccc6)c(S(=O)(=O)C(F)(F)F)c5)cc4)CC3)c2)c(-c2ccc(Cl)cc2)n1C(C)C
active: GI50 (CCRF-CEM leukemia) 0.0412 µM | GI50 (HCC-2998 colon) 0.425 µM | GI50 (HOP-92 NSCLC) 0.0429 µM | GI50 (MOLT-4 leukemia) 0.0152 µM
15.6 µM: TGI (HCC-2998 colon)
0.178 µM: TGI (CCRF-CEM leukemia)
15 µM: TGI (MDA-MB-231 breast)
> 100 µM: TGI (786-0 renal) | TGI (A498 renal) | TGI (A549 NSCLC) | TGI (ACHN renal) | TGI (BT-549 breast) | TGI (CAKI-1 renal) | TGI (COLO 205 colon) | TGI (DU-145 prostate) | TGI (HCT-116 colon) | TGI (HCT-15 colon) | TGI (HL-60(TB) leukemia) | TGI (HOP-62 NSCLC) | TGI (HT29 colon) | TGI (IGROV1 ovarian) | TGI (K-562 leukemia) | TGI (KM12 colon) | TGI (LOX IMVI melanoma) | TGI (M14 melanoma) | TGI (MALME-3M melanoma) | TGI (MCF7 breast) | TGI (MDA-MB-435 melanoma) | TGI (MDA-MB-468 breast) | TGI (NCI-H226 lung)
0.739 µM: TGI (HOP-92 NSCLC)
0.0362 µM: TGI (MOLT-4 leukemia)
inactive: GI50 ([…]-0 renal) > 100 µM | GI50 (A498 renal) > 100 µM | GI50 (A549 NSCLC) > 100 µM | GI50 (ACHN renal) > 100 µM | GI50 (BT-549 breast) > 100 µM | GI50 (CAKI-1 renal) > 100 µM | GI50 (COLO 205 colon) > 100 µM | GI50 (DU-145 prostate) > 100 µM | GI50 (HCT-116 colon) > 100 µM | GI50 (HCT-15 colon) > 100 µM | GI50 (HL-60(TB) leukemia) > 100 µM | GI50 (HOP-62 NSCLC) > 100 µM | GI50 (HT29 colon) > 100 µM | GI50 (IGROV1 ovarian) > 100 µM | GI50 (K-562 leukemia) > 100 µM | GI50 (KM12 colon) > 100 µM | GI50 (LOX IMVI melanoma) > 100 µM | GI50 (M14 melanoma) > 100 µM | GI50 (MALME-3M melanoma) > 100 µM | GI50 (MCF7 breast) > 100 µM | GI50 (MDA-MB-231 breast) 0.945 µM | GI50 (MDA-MB-435 melanoma) > 100 µM | GI50 (MDA-MB-468 breast) 73.1 µM | GI50 (NCI-H226 lung) > 100 µM | GI50 (NCI-H23 lung) > 100 µM
